Reference: ChEMBL document CHEMBL4610120, “New Broad-Spectrum Antibiotics Containing a Pyrrolobenzodiazepine Ring with Activity against Multidrug-Resistant Gram-Negative Bacteria” (J Med Chem, 2020)
Converted amounts (≈) assume the structure as drawn.

What was measured:
Enterococcus faecium = experiment: Antibacterial activity against vancomycin resistant Enterococcus faecium NCTC 12204 by microdilution broth method; assay type: functional
[1] = molecular target: T1, LexA repressor (Escherichia coli) (UniProt P0A7C2); experiment: Induction of Escherichia coli K12 MG1655 lexA promotor measured at 30 mins interval for 20 hrs by fluorescence assay relative to control; settings: Escherichia coli str. K-12 substr. MG1655
T1 sequence (whole entry): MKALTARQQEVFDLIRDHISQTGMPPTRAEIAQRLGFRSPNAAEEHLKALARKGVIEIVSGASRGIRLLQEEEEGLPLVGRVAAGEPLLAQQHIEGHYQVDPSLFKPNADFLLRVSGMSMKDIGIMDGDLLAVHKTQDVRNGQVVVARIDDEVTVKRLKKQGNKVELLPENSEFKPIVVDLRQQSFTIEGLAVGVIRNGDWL

Enterococcus faecalis = experiment: Antibacterial activity against vancomycin resistant Enterococcus faecalis NCTC 12201 by microdilution broth method; assay type: functional
Pseudomonas aeruginosa [2] = experiment: Antimicrobial activity against multidrug-resistant Pseudomonas aeruginosa NCTC 13437 in presence of efflux pump inhibitor PAbetaN by microdilution broth method; assay type: functional
DNA = experiment: Stabilization of 5'-FAM-TAT-AGA-TAT-AGA-TAT-TTT-ATA-TCT-ATA-TCT-ATA-3'-TAMRA DNA (unknown origin) assessed as reduction in change in melting temperature at 1:1 to 5:1 ligand to DNA ratio measured after 3 hrs by FRET-based assay relative to control; assay type: ADME, nucleic-acid assay
Klebsiella pneumoniae [3] = experiment: Antibacterial activity against multidrug-resistant Klebsiella pneumoniae NCTC 13368 measured after 10 passages by microdilution broth method; assay type: functional
[4] = Selectivity ratio of cytotoxicity against human WI38 cells to MIC for Klebsiella pneumoniae M6; assay type: toxicity, cell-based
Staphylococcus aureus [5] = experiment: Antibacterial activity against methicillin resistant Staphylococcus aureus NCTC 13277 by microdilution broth method; assay type: functional
Klebsiella pneumoniae [6] = experiment: Antimicrobial activity against multidrug-resistant Klebsiella pneumoniae 16 in presence of efflux pump inhibitor CCCP by microdilution broth method; assay type: functional
Escherichia coli [7] = experiment: Antimicrobial activity against multidrug-resistant Escherichia coli CFI_161_NDM_5_OXA_181 by microdilution broth method; assay type: functional
Klebsiella pneumoniae [8] = experiment: Antimicrobial activity against Klebsiella pneumoniae M137K by microdilution broth method; assay type: functional
Klebsiella pneumoniae [9] = experiment: Antimicrobial activity against multidrug-resistant Klebsiella pneumoniae NCTC 13368 in presence of efflux pump inhibitor PAbetaN by microdilution broth method; assay type: functional
Pseudomonas aeruginosa [10] = experiment: Antimicrobial activity against Pseudomonas aeruginosa PAO1 in presence of membrane permeabilizer PMBN by microdilution broth method; assay type: functional
[11] = Selectivity ratio of cytotoxicity against human WI38 cells to MIC for multidrug-resistant Acinetobacter baumannii AYE; assay type: toxicity, cell-based
Acinetobacter baylyi = experiment: Antimicrobial activity against multidrug-resistant Acinetobacter baylyi ADP1 by microdilution broth method; assay type: functional
Klebsiella pneumoniae [12] = experiment: Ratio of MIC for multidrug-resistant Klebsiella pneumoniae 16 to MIC for multidrug-resistant Klebsiella pneumoniae 16 in presence of membrane permeabilizer PMBN; assay type: functional
Escherichia coli [13] = experiment: Antimicrobial activity against multidrug-resistant Escherichia coli 319238/UR by microdilution broth method; assay type: functional
Pseudomonas aeruginosa [14] = experiment: Antimicrobial activity against Pseudomonas aeruginosa PAO1 in presence of efflux pump inhibitor PAbetaN by microdilution broth method; assay type: functional
Klebsiella pneumoniae [15] = experiment: Antimicrobial activity against multidrug-resistant Klebsiella pneumoniae 16 in presence of efflux pump inhibitor PAbetaN by microdilution broth method; assay type: functional
Acinetobacter baumannii [16] = experiment: Antimicrobial activity against multidrug-resistant Acinetobacter baumannii NCTC 13424 in presence of efflux pump inhibitor CCCP by microdilution broth method; assay type: functional
[17] = Selectivity ratio of cytotoxicity against human WI38 cells to MIC for Acinetobacter baumannii ATCC 17978; assay type: toxicity, cell-based
Pseudomonas aeruginosa [18] = experiment: Ratio of MIC for multidrug-resistant Pseudomonas aeruginosa NCTC 13437 to MIC for multidrug-resistant Pseudomonas aeruginosa NCTC 13437 in presence of membrane permeabilizer PMBN; assay type: functional
Klebsiella pneumoniae [19] = experiment: Antimicrobial activity against Klebsiella pneumoniae tnkp1_lr150124p14q189 by microdilution broth method; assay type: functional
Staphylococcus aureus [20] = experiment: Antibacterial activity against methicillin sensitive Staphylococcus aureus NCTC 6571 by microdilution broth method; assay type: functional
[21] = Selectivity ratio of cytotoxicity against human WI38 cells to MIC for methicillin resistant Staphylococcus aureus NCTC 13616; assay type: toxicity, cell-based
Acinetobacter baumannii [22] = experiment: Antimicrobial activity against Acinetobacter baumannii ATCC 17978 in presence of efflux pump inhibitor PAbetaN by microdilution broth method; assay type: functional
[23] = Selectivity ratio of cytotoxicity against human WI38 cells to MIC for multidrug-resistant Pseudomonas aeruginosa NCTC 13437; assay type: toxicity, cell-based
Klebsiella pneumoniae [24] = experiment: Antimicrobial activity against multidrug-resistant Klebsiella pneumoniae M6 by microdilution broth method; assay type: functional
Pseudomonas aeruginosa [25] = experiment: Ratio of MIC for Pseudomonas aeruginosa PAO1 to MIC for Pseudomonas aeruginosa PAO1 in presence of membrane permeabilizer PMBN; assay type: functional
Acinetobacter baumannii [26] = experiment: Antimicrobial activity against multidrug-resistant Acinetobacter baumannii AYE in presence of efflux pump inhibitor PAbetaN by microdilution broth method; assay type: functional
Escherichia coli [27] = experiment: Antimicrobial activity against multidrug-resistant Escherichia coli CFI_033_NDM by microdilution broth method; assay type: functional
[28] = molecular target: T2, Protein RecA (Escherichia coli K-12) (UniProt P0A7G6); experiment: Induction of Escherichia coli K12 MG1655 recA promotor measured at 30 mins interval for 20 hrs by fluorescence assay relative to control; settings: Escherichia coli str. K-12 substr. MG1655
T2 sequence (whole entry): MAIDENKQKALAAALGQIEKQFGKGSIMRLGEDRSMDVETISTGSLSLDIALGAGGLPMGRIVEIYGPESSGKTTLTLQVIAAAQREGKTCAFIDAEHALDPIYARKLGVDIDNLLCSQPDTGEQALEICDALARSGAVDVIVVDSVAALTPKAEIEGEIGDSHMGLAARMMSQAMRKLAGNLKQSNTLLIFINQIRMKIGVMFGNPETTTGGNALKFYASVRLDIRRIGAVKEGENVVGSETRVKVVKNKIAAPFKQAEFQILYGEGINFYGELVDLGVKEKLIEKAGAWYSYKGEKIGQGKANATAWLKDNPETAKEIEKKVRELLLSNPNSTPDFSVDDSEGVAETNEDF

[29] = Cytotoxicity against human WI38 cells assessed as cell viability at 20 uM measured after 24 hrs by MTT assay relative to control; assay type: cell-based, WI-38; settings: read-out: Activity
Klebsiella pneumoniae [30] = experiment: Antibacterial activity against multidrug-resistant Klebsiella pneumoniae NCTC 13368-7-R1 measured after 10 passages by microdilution broth method; assay type: functional
Klebsiella pneumoniae [31] = experiment: Antibacterial activity against multidrug-resistant Klebsiella pneumoniae NCTC 13368-7-R2 measured after 10 passages in presence of efflux pump inhibitor CCCP by microdilution broth method; assay type: functional
Klebsiella pneumoniae [32] = experiment: Antibacterial activity against multidrug-resistant Klebsiella pneumoniae NCTC 13368-7-R1 measured after 10 passages in presence of efflux pump inhibitor PAbetaN by microdilution broth method; assay type: functional
Klebsiella pneumoniae [33] = experiment: Antimicrobial activity against Klebsiella pneumoniae M6 by microdilution broth method; assay type: functional
Klebsiella pneumoniae [34] = experiment: Ratio of MIC for multidrug-resistant Klebsiella pneumoniae NCTC 13368-7-R1 measured after 10 passages to MIC for multidrug-resistant Klebsiella pneumoniae NCTC 13368-7-R1 measured after 10 passages in presence of efflux pump inhibitor PAbetaN; assay type: functional

Row | SMILES | MIC (Enterococcus faecium) | fold change (FC) [1] | MIC (Enterococcus faecalis) | MIC (Pseudomonas aeruginosa [2]) | fold change (FC) (DNA) | MIC (Klebsiella pneumoniae [3]) | selectivity ratio [4] | MIC (Staphylococcus aureus [5]) | MIC (Klebsiella pneumoniae [6]) | MIC (Escherichia coli [7]) | MIC (Klebsiella pneumoniae [8]) | MIC (Klebsiella pneumoniae [9]) | MIC (Pseudomonas aeruginosa [10]) | selectivity ratio [11] | MIC (Acinetobacter baylyi) | Ratio (Klebsiella pneumoniae [12]) | MIC (Escherichia coli [13]) | MIC (Pseudomonas aeruginosa [14]) | MIC (Klebsiella pneumoniae [15]) | MIC (Acinetobacter baumannii [16]) | further results
1 | COc1cc2c(cc1OCCCC(=O)Nc1cc(C(=O)Nc3ccc4sc(C(=O)N(C)C)cc4c3)n(C)c1)N=C[C@@H]1CCCN1C2=O | 0.03 µg/mL (≈ 0.0457 µM) | 5 to 9 | 0.03 µg/mL (≈ 0.0457 µM) | 16 µg/mL | 3 to 4 | > 32 µg/mL | 10 | 0.06 µg/mL (≈ 0.0914 µM) | 0.06 to 0.5 µg/mL | 0.5 µg/mL (≈ 0.761 µM) | 16 to 32 µg/mL (≈ 24.4 to 48.7 µM) | 0.5 µg/mL | 2 to 16 µg/mL | 10 | 0.125 µg/mL (≈ 0.19 µM) | 4 | 0.5 µg/mL (≈ 0.761 µM) | 2 µg/mL | 2 µg/mL | 0.25 µg/mL | selectivity ratio [17]: 10; Ratio (Pseudomonas aeruginosa [18]): 32 - 1000; MIC (Klebsiella pneumoniae [19]): 16 to 32 µg/mL (≈ 24.4 to 48.7 µM); MIC (Staphylococcus aureus [20]): 0.03 µg/mL (≈ 0.0457 µM); selectivity ratio [21]: 100; MIC (Acinetobacter baumannii [22]): 0.25 µg/mL; selectivity ratio [23]: 10; MIC (Klebsiella pneumoniae [24]): 1 µg/mL (≈ 1.52 µM); Ratio (Pseudomonas aeruginosa [25]): >=4 - 16; MIC (Acinetobacter baumannii [26]): 0.25 µg/mL; MIC (Escherichia coli [27]): 0.5 µg/mL (≈ 0.761 µM); fold change (FC) [28]: 8 to 10; viability at 24 h, 20 µM [29]: > 85%
2 | COc1cc2c(cc1OCCCC(=O)Nc1cc(C(=O)Nc3ccc4oc(C(=O)N5CCSCC5)cc4c3)n(C)c1)N=C[C@@H]1CCCN1C2=O | 0.03 µg/mL (≈ 0.0429 µM) | 5 to 9 | 0.25 µg/mL (≈ 0.358 µM) | > 32 µg/mL | 3 to 4 | ≥ 128 µg/mL | 10 | 2 µg/mL (≈ 2.86 µM) | 0.12 to 1 µg/mL | 1 µg/mL (≈ 1.43 µM) | 32 µg/mL (≈ 45.8 µM) | 8 µg/mL | 0.25 to 8 µg/mL | 10 | 1 µg/mL (≈ 1.43 µM) | 4 | 1 µg/mL (≈ 1.43 µM) | 32 µg/mL | 2 µg/mL | 1 µg/mL | MIC (Klebsiella pneumoniae [30]): 128 µg/mL (≈ 183 µM); MIC (Klebsiella pneumoniae [31]): > 128 µg/mL; selectivity ratio [17]: 10; Ratio (Pseudomonas aeruginosa [18]): >=8 - 64; MIC (Klebsiella pneumoniae [19]): > 128 µg/mL; selectivity ratio [21]: 100; MIC (Acinetobacter baumannii [22]): 2 µg/mL; selectivity ratio [23]: 10; MIC (Klebsiella pneumoniae [32]): 32 µg/mL; MIC (Klebsiella pneumoniae [24]): 1 µg/mL (≈ 1.43 µM); MIC (Klebsiella pneumoniae [33]): 1 µg/mL (≈ 1.43 µM); Ratio (Pseudomonas aeruginosa [25]): >=8 - 64; MIC (Acinetobacter baumannii [26]): 2 µg/mL; MIC (Escherichia coli [27]): 1 µg/mL (≈ 1.43 µM); fold change (FC) [28]: 8 to 10; Ratio (Klebsiella pneumoniae [34]): 4; viability at 24 h, 20 µM [29]: > 85%
